This is an account of results in PubChem BioAssay AID1117324 (Cheminformatics & Chemogenomics Research Group (CCRG), …, 2015).

Structures are written as SMILES. Activity calls are given as the source filed them. No rule for the calls is given here.

One may read the IC50 as the concentration at which inhibition is half-maximal.

This assay concerns VEGF-stimulated ADSC/ECFC co-culture, nuclear area imaging. As to the kind of experiment: nuclear area loss in endothelial-stromal co-culture, dose response, cell-based, VEGF stimulation, IC50 (AID 1117324).
Regarding `O=C(Nc1ccc([N+](=O)[O-])cc1)Nc1ccc([N+](=O)[O-])cc1`, the IC50 was > 10 µM (inactive).
In the case of `CCOC(=O)NC(C)(C)Cc1ccc(Cl)cc1`, the IC50 was > 10 µM (inactive).
For `CCCCCCCCCCCC(=O)[O][Sn]([CH2]CCC)([CH2]CCC)[O]C(=O)CCCCCCCCCCC`, the IC50 is > 10 µM (inactive).
In the case of `CCN(CC)CCNC(=O)c1c(C)[nH]c(/C=C2\C(=O)Nc3ccc(F)cc32)c1C`, the IC50 was > 10 µM (inactive).
For the compound `Oc1cc(Cl)ccc1Oc1ccc(Cl)cc1Cl`, the IC50 was 8.1 µM (inactive).
Regarding `CC[C@H](C)C(=O)O[C@H]1C[C@@H](C)C=C2C=C[C@H](C)[C@H](CC[C@@H]3C[C@@H](O)CC(=O)O3)[C@H]21`, the IC50 was > 10 µM (inactive).
For the compound `COc1ccc(Cc2nccc3cc(OC)c(OC)cc23)cc1OC`, the IC50 is > 10 µM (inactive).
The value for `O=C1CC(c2ccc(Cl)cc2)CC(=O)N1` was > 10 µM (inactive); that for `O=C(CCBr)N1CCN(C(=O)CCBr)CC1` was > 10 µM (inactive); that for `CN(C)CCOC1=Cc2ccccc2Sc2ccc(Cl)cc21` was > 10 µM (inactive).
As for `CCCCC(CC)COC(=O)CC(C(=O)OCC(CC)CCCC)S(=O)(=O)O` (stereo not given), the IC50 was > 10 µM (inactive).
On to `COC(=O)c1nc(Cl)c(Cl)nc1N`, for which the IC50 was 6.8 µM (inactive).
Consider `CN1CCCC(CC2c3ccccc3Sc3ccccc32)C1` (stereo not given), for which the IC50 is > 10 µM (inactive).
With `O=C(O)C1CCC1`, the IC50 is > 10 µM (inactive).
In the case of `C/C=C(/C(=C/C)c1ccc(OC(C)=O)cc1)c1ccc(OC(C)=O)cc1`, the IC50 is > 10 µM (inactive).
As to `CCCCCCCCCCCCCCCC[n+]1ccccc1`, the IC50 is 3.01 µM.
`CCCCCCCCCCCCCCCC[N+](C)(C)CCN(Cc1ccc(OC)cc1)c1ncccn1`: the IC50 is > 10 µM (inactive).
For `CCCCC(CC)COC(=O)C(C#N)=C(c1ccccc1)c1ccccc1` (stereo not given), the IC50 was 3.29 µM.
As for `COc1cccc2c1C(=O)c1c(O)c3c(c(O)c1C2=O)C[C@@](O)(C(=O)CO)CC3OC1CC(N2CCOC(OC)C2)C(O)C(C)O1` (stereo not given in full), the IC50 was 0.0442 µM.
For the compound `O=C1C(=O)c2ccccc2C(O)=C1C1CCC(c2ccc(Cl)cc2)CC1` (stereo not given), the IC50 was > 10 µM (inactive).
Consider `COc1ccc(/C=C/C(=O)c2ccc(OC)cc2OC)cc1`, for which the IC50 was > 10 µM (inactive).
The value for `CCOC(=O)c1ccccc1C(=O)OCC` was > 10 µM (inactive); that for `Cc1[nH]cnc1C[C@H]1CCc2c(C)c3ccccc3n2C1=O` was > 10 µM (inactive); that for `Cc1ccc([N+](=O)[O-])[c]2c1[O][Hg]2` was 1.09 µM.
`COc1cc(NCc2ccc3nc(N)nc(N)c3c2C)cc(OC)c1OC`: the IC50 was > 10 µM (inactive).
Turning to `Cc1c(O)cc2c(c1C)O[C@](C)(CCC[C@H](C)CCC[C@H](C)CCCC(C)C)CC2`, the IC50 was > 10 µM (inactive).
For `NC(=O)n1c(O)c(C(=O)c2cccs2)c2cc(Cl)ccc21`, the IC50 is > 10 µM (inactive).
Consider `COC(=O)Nc1nc2ccc(C(=O)C3CC3)cc2[nH]1`, for which the IC50 was > 10 µM (inactive).
In the case of `O=c1c(-c2ccccc2)c1-c1ccccc1`, the IC50 is 6.75 µM (inactive).
Take `CCCCCCCCCCCCCCCCCC[N+](C)(C)CCC[Si](OC)(OC)OC`: the IC50 is > 10 µM (inactive).
The value for `COc1ccc([C@@H]2Sc3ccccc3NC(=O)[C@@H]2O)cc1` was > 10 µM (inactive); that for `CN1CC[C@H](c2c(O)cc(O)c3c(=O)cc(-c4ccccc4Cl)oc23)[C@H](O)C1` was 0.328 µM.
Turning to `Cc1c(O)cccc1C(=O)N[C@@H](CSc1ccccc1)[C@H](O)CN1C[C@H]2CCCC[C@H]2C[C@H]1C(=O)NC(C)(C)C`, the IC50 was > 10 µM (inactive).
As for `COC(=O)C1=C(C)NC(C)=C(C(=O)O[C@@H]2CCCN(Cc3ccccc3)C2)[C@@H]1c1cccc([N+](=O)[O-])c1`, the IC50 was > 10 µM (inactive).
As to `CCCCc1ccc2nc(NC(=O)OC)[nH]c2c1`, the IC50 was > 10 µM (inactive).
As for `CC(COc1ccccc1)NN` (stereo not given), the IC50 was > 10 µM (inactive).
For `C[C@@H]1C[C@@H]([C@H](O)CC2CC(=O)NC(=O)C2)C(=O)[C@@H](C)C1`, the IC50 is > 10 µM (inactive).
For `CS(=O)(=O)CCNCc1ccc(-c2ccc3ncnc(Nc4ccc(OCc5cccc(F)c5)c(Cl)c4)c3c2)o1`, the IC50 was > 10 µM (inactive).
Take `Cc1c(N)cccc1C(F)(F)F`: the IC50 was > 10 µM (inactive).
Consider `CC(C)(C)C1CCC(CC2=C(O)c3ccccc3C(=O)C2=O)CC1` (stereo not given), for which the IC50 is > 10 µM (inactive).
On to `O=C(Nc1ccc([N+](=O)[O-])cc1Cl)c1cc(Cl)ccc1O`, for which the IC50 is 5.81 µM (inactive).
With `O=C(O)c1ccc2[nH]cc(CCCCN3CC=C(c4ccccc4)CC3)c2c1`, the IC50 was > 10 µM (inactive).
Turning to `CCCCC(CC)CN=C(N)NC(N)=NCCCCCCN=C(N)NC(N)=NCC(CC)CCCC` (stereo not given), the IC50 is > 10 µM (inactive).
For the compound `CN[C@@H]1C[C@@H](c2ccc(Cl)c(Cl)c2)c2ccccc21`, the IC50 is > 10 µM (inactive).
As to `OC[C@@H](O)[C@H](O)[C@H](O)[C@@H](O)CO`, the IC50 was > 10 µM (inactive).
In the case of `COC(=O)Nc1nc2ccc(C(=O)c3cccs3)cc2[nH]1`, the IC50 was > 10 µM (inactive).
The value for `Cc1nc(Nc2ncc(C(=O)Nc3c(C)cccc3Cl)s2)cc(N2CCN(CCO)CC2)n1` was > 10 µM (inactive); that for `CC(C)(C)C(=O)OCOP(=O)(COCCn1cnc2c(N)ncnc21)OCOC(=O)C(C)(C)C` was > 10 µM (inactive); that for `O=C(CCCN1CCC(O)(c2cccc(C(F)(F)F)c2)CC1)c1ccc(F)cc1` was > 10 µM (inactive).
The value for `Cc1nc2ccccc2n1Cc1ccc(Cl)cc1` was > 10 µM (inactive); that for `N/C(=N\N=C\c1ccc(Cl)cc1)N/N=C/c1ccc(Cl)cc1` was > 10 µM (inactive).
The value for `CSc1ccc(/C=C2/C(C)=C(CC(=O)O)c3cc(F)ccc32)cc1` was > 10 µM (inactive); that for `CCCCCCCCCCCC[N+](C)(C)Cc1ccccc1` was 6.93 µM (inactive); that for `CCC1=C[C@@H]2CN(C1)Cc1c([nH]c3ccccc13)[C@@](C(=O)OC)(c1cc3c(cc1OC)N(C)[C@H]1[C@@](O)(C(=O)OC)[C@H](OC(C)=O)[C@]4(CC)C=CCN5CC[C@]31[C@@H]54)C2` was > 10 µM (inactive).
In the case of `CC[C@@]1(O)C(=O)OCc2c1cc1n(c2=O)Cc2cc3c(CN(C)C)c(O)ccc3nc2-1`, the concentration for half-maximal inhibition (IC50) was 0.025 µM.
Then `CCN(CC)CCOc1ccc(C(O)(Cc2ccc(Cl)cc2)c2ccc(C)cc2)cc1` (stereo not given), with 6.98 µM (inactive).
For the compound `C[S+](CC[C@H](N)C(=O)O)C[C@H]1O[C@@H](n2cnc3c(N)ncnc32)[C@H](O)[C@H]1O` (stereo not given in full), the IC50 is > 10 µM (inactive).
Regarding `CC(=O)Oc1cccc2c1C(=O)c1c(OC(C)=O)cc(C(=O)O)cc1C2=O`, the IC50 was > 10 µM (inactive).
Turning to `CCOC(=O)C1=C[C@]2(CC)CCCN3CCc4c(n1c1ccccc41)[C@@H]32`, the IC50 was > 10 µM (inactive).
Then `CCOP(=S)(OCC)SCSc1ccc(Cl)cc1`, with > 10 µM (inactive); and `CCCCN1CCCC1C(=O)Nc1c(C)cc(C)cc1C` (stereo not given), with > 10 µM (inactive).
The value for `NCCNc1ccc(NCCN)c2c1C(=O)c1ccncc1C2=O` was > 10 µM (inactive); that for `CCCCCCCCCCCCCCCCCCNC(=O)OC1CCN(C(=O)OC[C@H](COC(=O)N(Cc2cccc[n+]2CC)C(=O)c2ccccc2OC)OC)CC1` was > 10 µM (inactive); that for `CCCCCCCCCCCCCC[N+](C)(C)Cc1ccccc1` was 8.36 µM (inactive).
Take `O=C(NC(=O)c1c(F)cccc1F)Nc1ccc(Cl)c(Oc2ncc(C(F)(F)F)cc2Cl)c1`: the IC50 was > 10 µM (inactive).
For `CN(C)/N=N/c1nc[nH]c1C(N)=O`, the IC50 was > 10 µM (inactive).
Then `O=C1NC2CCCCN2C12CCN(CCCN1c3ccccc3CCc3ccc(Cl)cc31)CC2` (stereo not given), with > 10 µM (inactive).
In the case of `COc1cc([C@@H]2c3cc4c(cc3[C@H](O)[C@H]3COC(=O)[C@H]23)OCO4)cc(OC)c1OC`, the IC50 is > 10 µM (inactive).
Then `S=c1nc[nH]c2nc[nH]c12`, with > 10 µM (inactive); and `Oc1ccc(/C=C/c2cc(O)cc(O)c2)cc1`, with > 10 µM (inactive); and `COc1ccc2c(c1)c1c3n2CCN(C)C3=NCC1`, with > 10 µM (inactive).
`C1CN(P2(N3CC3)=NP(N3CC3)(N3CC3)=NP(N3CC3)(N3CC3)=N2)CCO1` (stereo not given): the IC50 is > 10 µM (inactive).
Turning to `Cc1ccc2nc(N)[nH]c(=O)c2c1Sc1ccncc1`, the IC50 was > 10 µM (inactive).
The value for `O=c1[nH]c(=O)n([C@H]2C[C@H](O)[C@@H](CO)O2)cc1I` was > 10 µM (inactive); that for `CC[C@]1(O)CC[C@H]2[C@@H]3CCC4=CCCC[C@@H]4[C@H]3CC[C@@]21C` was > 10 µM (inactive); that for `CC[C@]12CCCN3CCc4c(n(c5ccccc45)C(=O)C1)[C@@H]32` was > 10 µM (inactive).
As for `Oc1c(I)cc(Cl)c2cccnc12`, the IC50 was > 10 µM (inactive).
Regarding `CCCCCCCCCCCCCCCC(=O)OCC=C(C)C=CC=C(C)C=CC1=C(C)CCCC1(C)C`, the IC50 is > 10 µM (inactive).
On to `OCCN1CCN(CCCN2c3ccccc3Sc3ccc(C(F)(F)F)cc32)CC1`, for which the IC50 is > 10 µM (inactive).
For the compound `CN1CCN(CCCN2c3ccccc3Sc3ccc(S(=O)(=O)N(C)C)cc32)CC1`, the IC50 was > 10 µM (inactive).
As to `CCCCCCCC[N+](C)(C)CCCCCCCC`, the IC50 was 7.43 µM (inactive).
Turning to `Cc1cc(OCCOCC[N+](C)(C)Cc2ccccc2)ccc1C(C)(C)CC(C)(C)C`, the IC50 is 8.7 µM (inactive).
On to `CCCCCCNC(=O)n1cc(F)c(=O)[nH]c1=O`, for which the IC50 is > 10 µM (inactive).
The value for `C#C[C@]1(O)CC[C@H]2[C@@H]3CCc4cc(O)ccc4[C@H]3CC[C@@]21C` was > 10 µM (inactive); that for `CCC(C)n1ncn(-c2ccc(N3CCN(c4ccc(OC[C@H]5CO[C@](Cn6cncn6)(c6ccc(Cl)cc6Cl)O5)cc4)CC3)cc2)c1=O` (stereo not given in full) was > 10 µM (inactive).
